Experimental data published in US20140155324A1, “NOVEL PEPTIDES AND USES THEREOF IN THERAPEUTIC METHODS” (TWO TO BIOTECH LTD., priority 2011, published 2014).

Columns and labels:
Format in all cases: in vivo, C57Bl/6 male mice
[1] = Glucose tolerance test (GTT) after 2 weeks of treatment; conditions: mice, 0.25, 1.5 or 15 mg/Kg 3 times a week for 2 weeks; glucose 2 g/Kg i.p., 0-120 min; optimal response at 1.5 mg/Kg; FIG. 1
Experimental: Twenty 7-weeks old C57Bl/6 male mice (per experiment) were purchased from Harlan Biotech (Jerusalem, Israel). All mice were maintained in the animal facility room at the company facility. The mice were given standard laboratory chow and water ad libitum and kept in a 12-hour light/dark cycle. All animal experiments were carried out in accordance with the guidelines of the Israeli authority for animal experiments for Care and Use of Laboratory Animals and with the authority specific approval. At the end of experiment (two weeks) a glucose tolerance test (GTT) was performed. The mice were starved overnight prior to administration of the test. Glucose was injected intraperitoneally (i.p.) (2 g/Kg body weight) and blood glucose levels were measured at time-points 0 min, 15 min, 30 min, 60 min, 90 min and 120 min. Blood glucose was determined by sampling tail vein blood using a standard glucometer. Male C57131/6 mice were divided into four groups of 5 mice each. The control group (Group I) received 5% Mannitol IV (200 μL 3 times a week). Group II received a dose of APC2 (0.25 mg/Kg body weight) 3 times a week. Group III received a dose of APC2 (1.5 mg/Kg body weight) 3 times a week. Group IV received a dose of APC2 (15 mg/Kg body weight) 3 times a week. The mice were treated for 2 weeks. […]

Plasma glucagon assay = conditions: mice, 0.25, 1.5 or 15 mg/Kg 3 times a week for 2 weeks; FIG. 2
Experimental: (§1) Twenty 7-weeks old C57Bl/6 male mice (per experiment) were purchased from Harlan Biotech (Jerusalem, Israel). All mice were maintained in the animal facility room at the company facility. The mice were given standard laboratory chow and water ad libitum and kept in a 12-hour light/dark cycle. All animal experiments were carried out in accordance with the guidelines of the Israeli authority for animal experiments for Care and Use of Laboratory Animals and with the authority specific approval.
Mice tail vein was punctured and blood glucose was assayed using a standard glucometer.
(§2) Male C57131/6 mice were divided into four groups of 5 mice each. The control group (Group I) received 5% Mannitol IV (200 μL 3 times a week). Group II received a dose of APC2 (0.25 mg/Kg body weight) 3 times a week. Group III received a dose of APC2 (1.5 mg/Kg body weight) 3 times a week. Group IV received a dose of APC2 (15 mg/Kg body weight) 3 times a week. The mice were treated for 2 weeks.
In addition to GTT, the mice plasma glucagon levels were assayed as described in the Methods section.

GLUT-4 = GLUT-4 RNA level in splenocytes of treated mice; conditions: mice, 0.25, 1.5 or 15 mg/Kg 3 times a week for 2 weeks; HPRT control; maximal induction at 1.5 mg/Kg; FIG. 3C
Experimental: (§3) Mice were sacrificed and dissected. 15-20 mg of appropriate tissue was taken and stabilized in RNA-Save. RNA was extracted from the tissue using an RNeasy mini kit. Homogenization was performed using a 22G needle and syringe. cDNA was prepared from the RNA using EZ-first strand cDNA synthesis kit for RT-PCR. PCR of samples was performed using GoTaq Green Master Mix using appropriate primers (40 cycles, annealing temperature: 62° C.).
as §2
(§4) At the end of the experiment, the mice were sacrificed, the splenocytes were collected from the different mice groups and the RNA levels of HPRT (control), insulin receptor and GLUT4 were assayed.

insulin receptor = test: Insulin receptor RNA level in splenocytes of treated mice; conditions: mice, 0.25, 1.5 or 15 mg/Kg 3 times a week for 2 weeks; HPRT control; maximal induction at 1.5 mg/Kg; FIG. 3B
Experimental: as §3, §2, §4

IL-1β = test: Serum IL-1β assay (Bio-Plex); conditions: mice, 0.25, 1.5 or 15 mg/Kg 3 times a week for 2 weeks; optimal response at 1.5 mg/Kg; FIG. 4B
Experimental: as §1
(§5) Blood was drawn from each mouse and collected separately in a 1.5 ml vial. After 30 min to 1 hr at room temperature, the clotted blood was centrifuged at 300G for 15 minutes at 4° C. The supernatant was collected to a new 1.5 ml vial and centrifuged again at 300G for 15 minutes. The supernatant was collected to a new 1.5 ml vial and frozen at −70° C. for later analysis. When ready for analysis, the blood vials were quickly thawed in a water bath at room temperature, and then centrifuged at 13,000 G for 10 minutes at 4° C. Samples were analyzed according to the Bio-Plex Pro assay instruction manual using a flat bottom black plate.
(§6) Male CS7Bl/6 mice were divided into four groups of 5 mice each. […]
(§7) At the end of the experiment, TNFα and IL-1β were measured in the mice plasma, and the results are presented in FIGS. 4A and 4B, respectively.

TNFα = test: Serum TNFα assay (Bio-Plex); conditions: mice, 0.25, 1.5 or 15 mg/Kg 3 times a week for 2 weeks; optimal response at 1.5 mg/Kg; FIG. 4A
Experimental: as §1, §5, §6, §7

With “APC-2: isolated polypeptide of SEQ ID NO. 1, hormone-like protein expressed in human heart and lymphocytes (MITSWFSLLPGSQEATATPPFPVVAGRKH; Homo sapiens APC2)” the “glucose tolerance (blood glucose levels after i.p. glucose)” value [1] was “improved glucose tolerance in a dose-dependent manner”, the plasma glucagon levels (Plasma glucagon assay) was “reduced in a dose-dependent manner” and the “GLUT4 RNA levels in splenocytes” value (GLUT-4) was “up-regulated”. The “insulin receptor RNA levels in splenocytes” value (insulin receptor) was “up-regulated”.

For “APC-3: isolated polypeptide of SEQ ID NO. 5, hormone-like protein expressed in human spleen, testis, small intestine, colon and kidney (MSSFCLALEVFHPTVSSGRSRPYQIASLETPVLNYSFHHRR; Homo sapiens APC3)”, the IL-1β levels (IL-1β) was “reduced both inflammatory cytokines levels in a dose-dependent manner” and the TNFα levels (TNFα) was “reduced both inflammatory cytokines levels in a dose-dependent manner”.
